In data set [1] the test system is potato transformants. Kind of data set: Herbicide metabolism in the potato transformants. The data set is classed as in vivo, potato (MayQueen). Particulars: 14C-labeled pyributicarb 10 μM in the medium; cultured for 8 days; thin layer chromatography. Here is the method:
The potato transformants proliferated from axillary buds, elongated to about 10 cm, were cultured in the medium added with the ^14C-labeled pyributicarb at the concentration of 10 μM. The plants were cultured for 8 days, and metabolites were extracted from the plants (Murakami, M. et al., J. Pesticide. Sci., 1997, 22, 222-225). The metabolites and the culture solution were analyzed by thin layer chromatography (Shiota, N. et al., Pestic. Biochem. Physiol., 1996, 54, 190-198).

In the next data set the target is T1, Human CYP2C19 (Homo sapiens, UniProt P33261).
T1 construct: purchased Sumitomo Chemical; host or cells: recombinant yeast, microsomal fraction
Briefly: Metabolism of herbicides in microsomes of recombinant yeast expressing human P450. The format is in vitro ADME.

Data set [2] deals with seeds of Nipponbare into which the gene was not introduced. Kind of data set: Germination assay for herbicide resistance, non-introduced rice seeds. The data set is classed as in vivo, rice (Nipponbare). The conditions noted are these: after about 4 to 7 days.
The next data set deals with non-transformed MayQueen. Kind of data set: Assay for herbicide resistance, non-transformed potato. The format is in vivo. The conditions noted are these: 14 days after dispersal. From the text: 4, the same growth as that when herbicide was not dispersed.
The test system of data set [3] is human P4502C18 gene-introduced rice. Briefly: Germination assay for herbicide resistance of human P4502C18 gene-introduced rice R1 seeds. The format is in vivo.
Data set [4] relates to human P4502C19 gene-introduced rice. Kind of data set: Germination assay for herbicide resistance of human P4502C19 gene-introduced rice R1 seeds. The data set is classed as in vivo.
The target of another data set is T2, Human CYP2B6 (Homo sapiens, UniProt P20813).
T2 sequence (P20813 1-491): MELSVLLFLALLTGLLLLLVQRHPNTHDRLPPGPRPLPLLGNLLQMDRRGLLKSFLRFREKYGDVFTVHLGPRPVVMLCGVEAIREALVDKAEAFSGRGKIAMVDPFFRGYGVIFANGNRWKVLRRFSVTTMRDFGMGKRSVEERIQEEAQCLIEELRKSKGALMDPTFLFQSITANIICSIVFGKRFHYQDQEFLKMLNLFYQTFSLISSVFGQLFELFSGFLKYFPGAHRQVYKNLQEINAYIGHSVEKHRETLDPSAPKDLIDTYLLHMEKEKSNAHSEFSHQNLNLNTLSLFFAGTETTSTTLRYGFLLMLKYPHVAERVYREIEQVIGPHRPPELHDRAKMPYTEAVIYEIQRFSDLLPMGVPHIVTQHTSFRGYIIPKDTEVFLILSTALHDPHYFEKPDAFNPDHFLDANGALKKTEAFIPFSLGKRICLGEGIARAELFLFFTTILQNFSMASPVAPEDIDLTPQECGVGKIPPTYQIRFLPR
Briefly: Metabolism of herbicides in microsomes of recombinant yeast expressing human P450. On the procedure:
The reaction was carried out in a range of temperature suitable for an organism from which a p450 molecular species is derived (for example, 37° C. for human P450), by mixing with air while vigorously shaking, within a period during which an enzyme is not inactivated (for example, for 10 to 60 min).
From the height of the peak, a metabolized amount can be obtained.
To 0.1 M potassium phosphate buffer (pH 7.4), the microsomal fraction prepared from each of yeast strains respectively expressing one of 11 human P450 molecular species (obtained from Sumitomo Chemical) was added so that the amount of the p450 would be 25 pmol. Furthermore, 0.5 mM NADPH, 5 mM glucose 6 phosphate, 1 U/ml glucose 6 phosphate dehydrogenase, and 0.1 mM each of the following herbicides (those available in the market were used) were added at the final concentrations thereto to make the total volume of 100 μl. The reaction mixture was shaken at 37° C. for 60 min, and an organic solvent was added thereto for the extraction. The extract was applied to the high performance liquid chromatography, and the metabolite was measured.

A further data set deals with S1974 (human CYP2C19). Briefly: Herbicide tolerance assay for transformants. Particulars: acetochlor 20 μmol, atrazine 1.2 μmol, metolachlor 30 μmol dispersed. The data set is classed as in vivo, Solanum tuberosum cv. MayQueen. The source says: Then, herbicides were dispersed.
Another data set has as its system S1972 (human CYP2B6). Particulars: acetochlor 20 μmol, metolachlor 30 μmol dispersed.
Data set [5] deals with potato transformants. Kind of data set: Assay for herbicide resistance of potato transformants (human CYP2C19). The conditions noted are these: for Resistance to herbicide: Transformant, 14 days after dispersal.

T1 sequence (P33261 whole entry): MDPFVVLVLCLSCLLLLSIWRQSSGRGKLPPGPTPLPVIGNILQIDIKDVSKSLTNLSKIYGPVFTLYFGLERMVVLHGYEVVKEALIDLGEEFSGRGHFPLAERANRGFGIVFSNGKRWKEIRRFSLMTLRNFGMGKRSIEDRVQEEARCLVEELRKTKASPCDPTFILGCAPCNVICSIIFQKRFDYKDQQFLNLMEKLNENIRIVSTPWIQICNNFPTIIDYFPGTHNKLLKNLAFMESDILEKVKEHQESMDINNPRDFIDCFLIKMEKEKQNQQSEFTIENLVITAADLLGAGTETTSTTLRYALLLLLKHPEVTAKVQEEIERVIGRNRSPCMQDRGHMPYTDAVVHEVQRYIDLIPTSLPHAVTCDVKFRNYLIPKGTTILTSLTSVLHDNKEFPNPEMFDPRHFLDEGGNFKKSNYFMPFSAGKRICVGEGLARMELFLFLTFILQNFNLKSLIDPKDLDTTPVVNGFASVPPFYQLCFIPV

`COc1cccc(N(C)C(=S)Oc2cccc(C(C)(C)C)c2)n1` [pyributicarb]: in the data set with potato transformants [1], the “amounts of pyributicarb in transgenic plant and in the medium compared with non-transformed MayQueen” value is “obviously reduced”. In addition, the metabolic reaction confirmed entry at Human CYP2C19 is given as “thioester cleavage”.
On to `CCc1cccc(C)c1N(C(=O)CCl)C(C)COC` (stereo not drawn) [metolachlor], for which the Germination of seeds result in data set [2] ([…] metolachlor, […] alachlor, 15 μM triflurarin) is given as “inhibited”; in data set [2] (metolachlor 4 μM), “inhibited”. Further, the Resistance to herbicide worked out at 2 in the data set with non-transformed MayQueen (Metolachlor 10 μmol/pot); 2 in the data set on non-transformed MayQueen (Metolachlor 15 μmol/pot); 1.5 in the data set with non-transformed MayQueen (Metolachlor 20 μmol/pot); 2.5 in the data set with potato transformants [5] (Metolachlor 10 μmol/pot); 3.5 in the data set with potato transformants [5] (Metolachlor 15 μmol/pot); 2.5 in the data set with potato transformants [5] (Metolachlor 20 μmol/pot). In addition, the “The number of tolerant lines” value in data set [3] (2C18, 4 μM · 2 ml, 72 sample lines) came out at 3; in data set [4] (2C19, 4 μM · 2 ml, 68 sample lines), 13. The “elongation of shoots and roots of segregated individuals” value in data set [3] (metolachlor 4 μM) and in data set [4] (metolachlor 4 μM) was “normally elongated” in each case. The metabolic reaction confirmed entry on Human CYP2B6 was “O-deethylation, O-demethylation”. In addition, the “resistance of the transformant to the herbicide” value in the data set on S1974 (human CYP2C19) and in the data set with S1972 (human CYP2B6) was “strong resistance” throughout. Moreover, in the data set on potato transformants [5] (herbicide dispersed 1 week after transfer to pots), the “resistance of the transformant compared with the non-transformed MayQueen” value is given as “higher resistance”.

For the origin of these results see patent US6613961B1, “Plants capable of metabolizing drugs and use thereof” (priority 1998, dated 2003).
